Test results as given in publication PMC6060247, “Disruption of Amino Acid Homeostasis by Novel ASCT2 Inhibitors Involves Multiple Targets” (Frontiers in Pharmacology, 2018).

How the values were obtained:
LAT1 (SLC7A5) = biological target: T1, LAT1 (SLC7A5) (Rattus norvegicus, UniProt Q63016); test: isoleucine uptake in Xenopus laevis oocytes expressing h4F2hc/rLAT1; format: cell-based
T1 construct: with human 4F2hc

SNAT1 (SLC38A1) = biological target: T2, SNAT1 (SLC38A1) (Homo sapiens, UniProt Q9H2H9); test: glutamine uptake in Xenopus laevis oocytes expressing hSNAT1; format: cell-based
T2 sequence (Q9H2H9 1-487): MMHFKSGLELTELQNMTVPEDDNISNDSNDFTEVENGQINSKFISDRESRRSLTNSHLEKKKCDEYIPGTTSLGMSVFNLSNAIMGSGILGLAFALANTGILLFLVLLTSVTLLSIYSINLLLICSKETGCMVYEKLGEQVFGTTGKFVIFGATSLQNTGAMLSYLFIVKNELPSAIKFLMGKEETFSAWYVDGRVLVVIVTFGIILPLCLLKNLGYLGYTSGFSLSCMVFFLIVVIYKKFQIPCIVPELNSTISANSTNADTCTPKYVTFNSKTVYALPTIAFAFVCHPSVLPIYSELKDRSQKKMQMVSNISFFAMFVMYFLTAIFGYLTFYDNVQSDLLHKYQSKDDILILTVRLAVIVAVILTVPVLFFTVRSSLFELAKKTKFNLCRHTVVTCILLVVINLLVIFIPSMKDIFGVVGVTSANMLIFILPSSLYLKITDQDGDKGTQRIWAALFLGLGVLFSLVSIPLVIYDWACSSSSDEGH

T1 sequence (Q63016 whole entry): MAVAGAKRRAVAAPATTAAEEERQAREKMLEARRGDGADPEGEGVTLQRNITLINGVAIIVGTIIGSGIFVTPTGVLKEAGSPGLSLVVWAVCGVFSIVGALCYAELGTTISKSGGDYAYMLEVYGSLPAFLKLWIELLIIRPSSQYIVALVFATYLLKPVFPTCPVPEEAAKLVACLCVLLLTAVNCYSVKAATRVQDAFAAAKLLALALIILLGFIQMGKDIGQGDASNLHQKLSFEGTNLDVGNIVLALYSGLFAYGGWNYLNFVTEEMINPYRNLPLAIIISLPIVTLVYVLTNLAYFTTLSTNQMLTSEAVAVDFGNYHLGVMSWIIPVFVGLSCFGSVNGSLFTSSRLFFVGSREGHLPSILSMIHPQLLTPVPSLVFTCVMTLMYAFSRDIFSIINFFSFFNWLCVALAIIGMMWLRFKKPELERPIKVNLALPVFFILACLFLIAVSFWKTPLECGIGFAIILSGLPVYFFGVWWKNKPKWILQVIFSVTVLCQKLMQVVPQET
T1 sequence (P08195 103-630 partner): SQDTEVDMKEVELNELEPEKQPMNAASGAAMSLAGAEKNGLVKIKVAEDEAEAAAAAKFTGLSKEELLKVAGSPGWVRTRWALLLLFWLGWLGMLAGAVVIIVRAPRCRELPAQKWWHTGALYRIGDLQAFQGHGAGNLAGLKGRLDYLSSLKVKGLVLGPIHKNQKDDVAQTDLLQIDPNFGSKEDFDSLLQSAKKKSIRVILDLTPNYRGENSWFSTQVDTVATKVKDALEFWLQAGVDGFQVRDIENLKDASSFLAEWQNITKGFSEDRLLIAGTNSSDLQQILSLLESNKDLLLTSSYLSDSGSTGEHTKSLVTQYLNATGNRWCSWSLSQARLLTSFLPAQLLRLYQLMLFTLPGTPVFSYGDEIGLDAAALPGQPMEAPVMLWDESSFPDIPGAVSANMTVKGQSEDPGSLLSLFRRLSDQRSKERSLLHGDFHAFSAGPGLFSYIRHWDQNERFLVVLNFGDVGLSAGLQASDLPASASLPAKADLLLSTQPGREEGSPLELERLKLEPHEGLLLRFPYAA

SMILES | isoleucine uptake in Xenopus laevis oocytes expressing h4F2hc/rLAT1 (LAT1 (SLC7A5)) | glutamine uptake in Xenopus laevis oocytes expressing hSNAT1 (SNAT1 (SLC38A1))
CC[C@H](C)[C@H](N)C(=O)O [isoleucine] | isoleucine transport was used to measure h4F2hc/rLAT1 activity | 
NC(=O)CC[C@H](N)C(=O)O [glutamine] |  | Glutamine uptake was used to measure hSNAT1, hSNAT2, and hASCT2 activity
